Reference: PubChem BioAssay (NCI)
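Here, GI50 denotes the concentration required for 50% inhibition of growth. At the TGI there is no net growth.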

Experiments:
Assay in all cases: DTP human tumour cell line panel, 384-well format
HOP-62 NSCLC = tested on: HOP-62 NSCLC
MDA-MB-468 breast = tested on: MDA-MB-468 breast
M14 melanoma = tested on: M14 melanoma
MCF7 breast = tested on: MCF7 breast
HT29 colon = tested on: HT29 colon
SNB-19 CNS = tested on: SNB-19 CNS
CAKI-1 renal = tested on: CAKI-1 renal
NCI-H460 NSCLC = tested on: NCI-H460 NSCLC
SK-MEL-5 melanoma = tested on: SK-MEL-5 melanoma
HCT-116 colon = tested on: HCT-116 colon
MDA-MB-435 melanoma = tested on: MDA-MB-435 melanoma
A498 renal = tested on: A498 renal
HCC-2998 colon = tested on: HCC-2998 colon
ACHN renal = tested on: ACHN renal
SK-MEL-28 melanoma = tested on: SK-MEL-28 melanoma
MALME-3M melanoma = tested on: MALME-3M melanoma
BT-549 breast = tested on: BT-549 breast
CCRF-CEM leukemia = tested on: CCRF-CEM leukemia
SW-620 colon = tested on: SW-620 colon
UACC-257 melanoma = tested on: UACC-257 melanoma
NCI-H226 lung = tested on: NCI-H226 lung
UACC-62 melanoma = tested on: UACC-62 melanoma
HS 578T breast = tested on: HS 578T breast
EKVX NSCLC = tested on: EKVX NSCLC
786-0 renal = tested on: 786-0 renal
COLO 205 colon = tested on: COLO 205 colon
NCI-H23 lung = tested on: NCI-H23 lung
SF-268 CNS = tested on: SF-268 CNS
SF-539 CNS = tested on: SF-539 CNS
HCT-15 colon = tested on: HCT-15 colon
RXF 393 renal = tested on: RXF 393 renal
NCI-H322M lung = tested on: NCI-H322M lung
PC-3 prostate = tested on: PC-3 prostate
K-562 leukemia = tested on: K-562 leukemia
MOLT-4 leukemia = tested on: MOLT-4 leukemia
U251 glioblastoma = tested on: U251 glioblastoma
TK-10 renal = tested on: TK-10 renal
RPMI-8226 leukemia = tested on: RPMI-8226 leukemia
SK-OV-3 ovarian = tested on: SK-OV-3 ovarian
LOX IMVI melanoma = tested on: LOX IMVI melanoma
T-47D breast = tested on: T-47D breast
NCI-H522 lung = tested on: NCI-H522 lung
OVCAR-4 ovarian = tested on: OVCAR-4 ovarian
NCI/ADR-RES ovarian = tested on: NCI/ADR-RES ovarian
DU-145 prostate = tested on: DU-145 prostate
SR leukemia = tested on: SR leukemia
A549 NSCLC = tested on: A549 NSCLC
HOP-92 NSCLC = tested on: HOP-92 NSCLC
KM12 colon = tested on: KM12 colon
MDA-MB-231 breast = tested on: MDA-MB-231 breast
UO-31 renal = tested on: UO-31 renal
IGROV1 ovarian = tested on: IGROV1 ovarian
SN12C renal = tested on: SN12C renal
OVCAR-3 ovarian = tested on: OVCAR-3 ovarian
SNB-75 CNS = tested on: SNB-75 CNS
SF-295 CNS = tested on: SF-295 CNS
HL-60(TB) leukemia = tested on: HL-60(TB) leukemia
OVCAR-8 ovarian = tested on: OVCAR-8 ovarian

## C=CC(=O)Nc1cccc(Nc2nc(Nc3ccc(OCCOC)cc3)ncc2F)c1
HOP-62 NSCLC
  GI50: 2900 nM
  TGI: 11.1 µM
MDA-MB-468 breast
  GI50: 562 nM
  TGI: 1760 nM
M14 melanoma
  GI50: 1710 nM
  TGI: 14.7 µM
MCF7 breast
  GI50: 3.1 µM
  TGI: 14.8 µM
HT29 colon
  GI50: 2980 nM
  TGI: 11.6 µM
SNB-19 CNS
  GI50: 4.01 µM
  TGI: 14.6 µM
CAKI-1 renal
  GI50: 602 nM
  TGI: 2080 nM
NCI-H460 NSCLC
  GI50: 2020 nM
  TGI: 10.3 µM
SK-MEL-5 melanoma
  GI50: 4.78 µM
  TGI: 18 µM
HCT-116 colon
  GI50: 2500 nM
  TGI: 12.7 µM
MDA-MB-435 melanoma
  GI50: 5.33 µM
  TGI: 17.6 µM
A498 renal
  GI50: 493 nM
  TGI: 1930 nM
HCC-2998 colon
  GI50: 2550 nM
  TGI: 13.7 µM
ACHN renal
  GI50: 1010 nM
  TGI: 3.51 µM
SK-MEL-28 melanoma
  GI50: 9.82 µM
  TGI: 21.6 µM
MALME-3M melanoma
  GI50: 3.64 µM
  TGI: 16.8 µM
BT-549 breast
  GI50: 802 nM
  TGI: 2840 nM
CCRF-CEM leukemia
  GI50: 1620 nM
  TGI: 3.39 µM
SW-620 colon
  GI50: 1840 nM
  TGI: 4.16 µM
UACC-257 melanoma
  GI50: 6.67 µM
  TGI: 19.3 µM
NCI-H226 lung
  GI50: 1000 nM
  TGI: 5.79 µM
UACC-62 melanoma
  GI50: 1520 nM
  TGI: 12.8 µM
HS 578T breast
  GI50: 1050 nM
  TGI: 2850 nM
EKVX NSCLC
  GI50: 2060 nM
  TGI: 9.06 µM
786-0 renal
  GI50: 1680 nM
  TGI: 6.51 µM
COLO 205 colon
  GI50: 5.33 µM
  TGI: 16.7 µM
NCI-H23 lung
  GI50: 2420 nM
  TGI: 12.9 µM
SF-268 CNS
  GI50: 2340 nM
  TGI: 10.5 µM
SF-539 CNS
  GI50: 1480 nM
  TGI: 3.26 µM
HCT-15 colon
  GI50: 1970 nM
  TGI: 12.9 µM
RXF 393 renal
  GI50: 867 nM
  TGI: 3.26 µM
NCI-H322M lung
  GI50: 1630 nM
  TGI: 8.82 µM
PC-3 prostate
  GI50: 2810 nM
  TGI: 12.6 µM
K-562 leukemia
  GI50: 3.73 µM
  TGI: 13.6 µM
MOLT-4 leukemia
  GI50: 1470 nM
  TGI: 2840 nM
U251 glioblastoma
  GI50: 2860 nM
  TGI: 13.1 µM
TK-10 renal
  GI50: 1310 nM
  TGI: 3.09 µM
RPMI-8226 leukemia
  GI50: 1010 nM
  TGI: 2990 nM
SK-OV-3 ovarian
  GI50: 755 nM
  TGI: 3.02 µM
LOX IMVI melanoma
  GI50: 2190 nM
  TGI: 6.05 µM
T-47D breast
  GI50: 2490 nM
  TGI: 13.9 µM
NCI-H522 lung
  GI50: 1480 nM
  TGI: 4.37 µM
OVCAR-4 ovarian
  GI50: 10.3 µM
  TGI: 22.1 µM
NCI/ADR-RES ovarian
  GI50: 2440 nM
  TGI: 6.32 µM
DU-145 prostate
  GI50: 2210 nM
  TGI: 13.5 µM
SR leukemia
  GI50: 933 nM
  TGI: 2660 nM
A549 NSCLC
  GI50: 2880 nM
  TGI: 11.2 µM
HOP-92 NSCLC
  GI50: 1820 nM
  TGI: 9.64 µM
KM12 colon
  GI50: 3.53 µM
  TGI: 14.3 µM
MDA-MB-231 breast
  GI50: 2300 nM
  TGI: 14.7 µM
UO-31 renal
  GI50: 1170 nM
  TGI: 3.39 µM
IGROV1 ovarian
  GI50: 1000 nM
  TGI: 2280 nM
SN12C renal
  GI50: 1280 nM
  TGI: 4.07 µM
OVCAR-3 ovarian
  GI50: 1220 nM
  TGI: 4.74 µM
SNB-75 CNS
  GI50: 1100 nM
  TGI: 2820 nM
SF-295 CNS
  GI50: 4.9 µM
  TGI: 17.1 µM
HL-60(TB) leukemia
  GI50: 1210 nM
  TGI: 2640 nM
OVCAR-8 ovarian
  GI50: 2510 nM
  TGI: 8.72 µM
